Literature values, collected in patent publication US11963940B2, “Parenteral esmolol formulation” (AOP ORPHAN PHARMACEUTICALS AG, priority 2012, dated 2024).

Details: after the starting dose, e.g. initial infusion

time to steady state plasma concentration: ≤ 5 min
Structure (SMILES): COC(=O)CCc1ccc(OCC(O)CNC(C)C)cc1.Cl (stereo not shown) [esmolol, 4-[2-Hydroxy-3-[(1-methylethyl)amino]propoxy] benzenepropanoic acid methyl ester hydrochloride]
